Like-named read-outs stand apart in the source and are kept apart here. Where a SMILES comes first, the peptide text is derived from it.
What was measured:
Kv1.3 channels [1] = target: T1, Kv1.3 channels (Homo sapiens, UniProt P22001); test: Whole-cell patch-clamp block of Kv1.3 currents in activated human peripheral T lymphocytes; format: cell-based
T1 construct: endogenous in cells
Method: (§1) Dose-response relationships of the synthetic wild-type toxin and the single and double mutants on Kv1.3 channels The blocking efficiency of the toxins was tested on activated lymphocytes. The remaining current fraction (RCF) was calculated as I/I0, where I and I0 represent the whole-cell current amplitude in the presence and absence of the toxin at the indicated concentrations, respectively. Data points are plotted with error bars representing SEM and were fitted with a Hill-equation to obtain the Kd of the binding.
(§2) Kv1.3 currents were measured in human peripheral T lymphocytes. Heparinized human peripheral venous blood was obtained from healthy volunteers. Mononuclear cells were separated by Ficoll-Hypaque density gradient centrifugation. Collected cells were washed twice with Ca^2+ and Mg^2+ free Hank's solution containing 25 mM HEPES buffer (pH 7.4). Cells were cultured in a 5% CO2 incubator at 37° C. in 24 well culture plates in RPMI-1640 supplements with 10% FCS (Sigma-Aldrich, Hungary) 100 μg/ml penicillin, 100 μg/ml streptomycin and 2 mM L-glutamine at 0.5×10^6/ml density for 3-4 days. The culture medium also contained 2.5 or 5 μg/ml of phytohemagglutinin A (PHA-P, Sigma-Aldrich Kft, Hungary) to increase K^+ channel expression [Bagdany M, et al. Mol Pharmacol 2005; 67:1034-1044].
(§3) Whole-cell currents were measured in voltage-clamped cells using Axopatch 200A and Multiclamp 700B amplifiers connected to a personal computer using Axon Digidata 1200 and 1322A data acquisition hardware, respectively (Molecular Devices Inc., Sunnyvale, Calif.). Series resistance compensation up to 70% was used to minimize voltage errors and achieve good voltage-clamp conditions. […] The measured osmolarity of the external solutions was between 302 and 308 mOsm. […] The measured osmolarity of the internal solutions was approximately 295 mOsm. Bath perfusion around the measured cell with different test solutions was achieved using a gravity-flow perfusion system. […]

hKv1.2 = target: T2, hKv1.2 (Homo sapiens, UniProt P16389); conditions: natural toxin, Bagdany et al., 2005, read-out: Kd for Kv1.2, cited from earlier work
T2 construct: expressed in transfected cells; host or cells: Cos-7 cells, co-transfected with a separate GFP plasmid
T2 sequence (P16389 whole entry): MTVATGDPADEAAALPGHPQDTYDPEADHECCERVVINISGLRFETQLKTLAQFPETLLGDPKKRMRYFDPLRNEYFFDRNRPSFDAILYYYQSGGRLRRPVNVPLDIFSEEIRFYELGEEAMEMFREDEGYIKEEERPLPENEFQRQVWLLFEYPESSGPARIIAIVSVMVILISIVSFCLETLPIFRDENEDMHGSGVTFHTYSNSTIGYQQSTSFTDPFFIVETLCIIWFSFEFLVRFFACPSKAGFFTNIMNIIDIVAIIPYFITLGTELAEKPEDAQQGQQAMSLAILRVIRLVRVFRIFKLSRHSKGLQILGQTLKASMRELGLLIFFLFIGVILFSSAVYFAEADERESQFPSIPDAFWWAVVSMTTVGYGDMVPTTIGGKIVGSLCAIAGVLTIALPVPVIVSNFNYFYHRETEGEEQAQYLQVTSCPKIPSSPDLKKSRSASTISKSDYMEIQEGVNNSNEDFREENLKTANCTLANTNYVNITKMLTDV

Kv1.3 channels [2] = target: T1, Kv1.3 channels; conditions: natural toxin, Bagdany et al., 2005; cited from earlier work
Kv1.3 channels [3] = test: Whole-cell patch-clamp block of Kv1.3 currents in activated human peripheral T lymphocytes; format: cell-based
Method: as §1, §2, §3

Kv1.3 [4] = test: Literature block of Kv1.3 by ADWX-1
Text: Han, S et al. have applied a structural approach [Han S et al, J Biol Chem 2008; 283(27):19058-19065.] to improve Kv1.3 selectivity of scorpion toxins. The authors started from the BmKTX scorpion toxin (Bhutus martensi) and designed a peptide with three point mutations based on binding studies to the Kv1.3 K channel at the molecular interaction level. Specifically, glycine (G) 11 was substituted with arginine (R), isoleucine (I) 28 with threonine (T) and aspartate (D) 33 with histidine (H) (BmKTX-Arg11Thr28His33 or ADWX-1 in short). […] 2009 231(1): 59-87.].

Kv1.3 [5] = conditions: found by Cahalan and Chandy 2009; read-out: IC50 for block of Kv1.3; cited from earlier work

T1 sequence (P22001 whole entry): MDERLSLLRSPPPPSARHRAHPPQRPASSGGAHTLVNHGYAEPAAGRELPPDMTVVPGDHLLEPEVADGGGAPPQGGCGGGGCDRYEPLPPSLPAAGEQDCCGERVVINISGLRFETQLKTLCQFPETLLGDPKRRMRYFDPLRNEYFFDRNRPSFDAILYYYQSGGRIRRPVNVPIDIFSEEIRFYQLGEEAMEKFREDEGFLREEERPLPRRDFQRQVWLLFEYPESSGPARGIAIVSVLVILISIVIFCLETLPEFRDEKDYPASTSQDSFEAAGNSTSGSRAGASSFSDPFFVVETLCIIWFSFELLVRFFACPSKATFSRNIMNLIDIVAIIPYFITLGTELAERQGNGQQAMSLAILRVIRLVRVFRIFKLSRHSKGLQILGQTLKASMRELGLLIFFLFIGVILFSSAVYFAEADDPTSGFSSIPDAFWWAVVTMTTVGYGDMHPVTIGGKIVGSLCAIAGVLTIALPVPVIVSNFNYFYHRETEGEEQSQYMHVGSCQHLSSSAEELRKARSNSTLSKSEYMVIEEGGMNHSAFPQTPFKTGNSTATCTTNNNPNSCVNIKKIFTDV

Compound: CSCC[C@@H]1NC(=O)[C@@H]2CSSC[C@H](NC(=O)[C@H](CCC(=O)O)NC(=O)[C@H](CCCCN)NC(=O)[C@H](CC(N)=O)NC(=O)[C@H](C)NC(=O)[C@H](C)NC(=O)[C@H](C)N)C(=O)N[C@@H]([C@@H](C)O)C(=O)NCC(=O)N3CCC[C@H]3C(=O)N[C@@H](CCC(N)=O)C(=O)N[C@@H](Cc3c[nH]cn3)C(=O)N[C@H]3CSSC[C@H](NC(=O)[C@H](CCCCN)NC(=O)[C@H](CCCNC(=N)N)NC(=O)[C@H](CC(N)=O)NC1=O)C(=O)N[C@@H](CCCCN)C(=O)N[C@H]1CSSC[C@H](NC(=O)[C@H](Cc4ccccc4)NC(=O)[C@H](CC(N)=O)NC(=O)[C@H]([C@@H](C)O)NC3=O)C(=O)N[C@@H](CCCNC(=N)N)C(=O)N[C@@H](CC(=O)O)C(=O)N[C@@H](C)C(=O)N[C@@H](CCCCN)C(=O)N[C@@H](CSSC[C@@H](C(=O)N[C@@H](CCCCN)C(=O)O)NC(=O)[C@H](CC(N)=O)NC(=O)[C@H]([C@@H](C)O)NC1=O)C(=O)N[C@@H]([C@@H](C)O)C(=O)N[C@@H](Cc1c[nH]cn1)C(=O)NCC(=O)N[C@@H](CCCCN)C(=O)N2 [(N-AAAN, K16D, N17A, F32T)] (HELM PEPTIDE1{A.A.A.N.K.E.C.T.G.P.Q.H.C.T.N.F.C.R.D.A.K.C.T.H.G.K.C.M.N.R.K.C.K.C.T.N.C.K}$PEPTIDE1,PEPTIDE1,7:R3-27:R3|PEPTIDE1,PEPTIDE1,13:R3-32:R3|PEPTIDE1,PEPTIDE1,17:R3-34:R3|PEPTIDE1,PEPTIDE1,22:R3-37:R3$$$V2.0; N-terminus and C-terminus assumed; bridges inferred)
- Kd (Kv1.3 channels [1]): 394 nM

Compound: Anuroctoxin [natural toxin]
- Kd (hKv1.2; listed as Anuroctoxin): 6.14 nM
- Kd (hKv1.2): 6.1 nM
- Kd (Kv1.3 channels [2]): 0.73 nM
- selectivity ratio SR=Kd[1.2]/Kd[1.3] (Kv1.3 channels [3]): 9
- selectivity for Kv1.3 over Kv1.2 (Kv1.3 channels [3]; ratio of Kd,Kv1.2 and Kd,Kv1.3): 9 fold

Compound: BmKTX-Arg11Thr28His33 [ADWX-1]
- lower potency of Cahalan/Chandy value versus Han value (Kv1.3 [4]): 1000 fold
- IC50 (Kv1.3 [5]): 1.2 nM

— patent publication US9062119B2, “Modified peptide toxins” (University of Debrecen, priority 2011, dated 2015)
